Entries after “also recorded” stand apart in the source; their conditions may differ.
Key:
IRSp53 deficient mice = assay: 3-chamber sociability test; type: in vivo, mouse; details: memantine 10 mg/kg, MPEP 30 mg/kg; for mice preference (sociability behavior) in the 3-chamber sociability test: intraperitoneal injection 30 minutes before the test, vs saline control; for sedation due to side effects: intraperitoneal injection
Description: For the experiment animals of the present invention, wild-type mice backcrossed into a C57BL/6J background and IRSp53 deficient mice were used. The mice were at 2-4 months of age. In addition, in the present invention, all of the experiments were conducted by maintaining a temperature of 20-22° C. and a humidity of 30-40% while the lights are turned on during 7:00 am to 7:00 pm. As the memantine, which is an NMDAR inhibitor and the MGluR inhibitor, the MPEP indirectly inhibiting the NMDAR is dissolved in physiological saline and used. The memantine is used in a concentration of 10 mg (10 mg/kg) per unit weight, and the MPEP is used in a concentration of 30 mg (30 mg/kg) per unit weight, and the drug was administered to the experiment mice by intraperitoneal injection before 30 minutes of every experiment. NMDAR was tested with respect to the sociability behavior of hyperactivated mice. The 3-chamber sociability test and the direct interaction test, which are the most widely used among the behavioral experiments for identifying sociability behavior of mice. The 3-chamber sociability test was conducted by using a behavior experiment box separated into 3 sections. […] A, B, and C of FIG. 1 show the measurement based on the box bottom, the horizontal side surface and the vertical side surface, respectively, and the experiment box was manufactured exposing that the top so the experiment may be photographed by a camera (FIG. 1). In the basic 3-chamber sociability test, a mouse (stranger) was placed in one side and an object (small toy block) without scent was placed in the other side, and the normal mouse (WT) and the deficient mouse were placed in the middle chamber to observe how much attention was given to the other mouse and explored and time was spent. The detailed experiment method of the present invention is described below. First, the wild-type mouse and the IRSp53 deficient mouse were prepared. In addition, before 10 minutes of the experiment, the mouse to be experimented was put into a soundproof booth in which the experiment was to be conducted. 10 minutes later, the holes in the inner wall were blocked and the mouse was put into the middle area. Another 10 minutes later, the holes were opened, and the mouse was allowed to move freely around the 3 chambers. […] During 10 minutes of experiment where the Stranger 1 and the object were placed, the time of the mouse staying at the two areas were measured. In addition, to measure the time of the actual mice exploring the stranger 1 or the object, the time when the nose of the mouse crosses over a virtual line 2 cm away from the plastic cup was measured. […]

NMDAR [1] = assay: NMDA/AMPA ratio, electrophysiology in brain slices; type: cell-based; details: IRSp53 deficient mouse, ratio increased vs wild-type; MPEP treatment
Description: (§1) To observe whether the memantine and the MPEP restore the NMDAR function observed on the hippocampus of the IRSp53 deficient mice to a normal range, the electrical signal flow of the synapses through the NMDAR was measured by the electrophysiological experiment.
In the present experiment, the Long-term potentiation (LTP) and the Long-term depression experiments were conducted. First, the NMDAR properties of the nerve cell of the IRSp53 deficient mice were electrophysiologically measured. The measurement was experimented and conducted by the method disclosed in the paper of Kim M H et al. (Kim, M. H. et al. Enhanced NMDA Receptor-Mediated Synaptic Transmission, Enhanced Long-Term Potentiation, and Impaired Learning and Memory in Mice Lacking IRSp53. J Neurosci 29, 1586-1595, doi:Doi 10.1523/Jneurosci.4306-08.2009 (2009)). The equipment used for the electrophysiological measurement was MultiClamp 700B amplifier and Axopatch 200B of Molecular Devices, and Clampex 9.2 and Clampfit 9 software of the same company were used. During the experiment, BX50WI microscope of Olympus was used.
In the present experiment, first, for all of the electrophysiological experiment, brain slices were made from the brains of the normal mice and the IRSp53 deficient mice. To make the slices, VT1200S model vibratome of Leica was used. […]

NMDAR [2] = assay: Electrophysiological measurement of NMDAR-LTD in hippocampal brain slices; type: cell-based; details: hippocampal brain slices of IRSp53 deficient mouse, weaker NMDAR-LTD than in normal mouse; memantine treatment
Description: as §1
When the NMDAR is activated by electrically stimulating the never cell, an ion transferred from the outside of the nerve cell to the inside of the nerve cell through the NMDAR according to the activation level exists, and by the ion concentration difference of the inside and outside of the cell, various proteins inside the cell are also activated, thereby showing electrical reaction of the nerve cell with respect to the stimulation. The state in which this reaction is maintained for 30 minutes or longer is called Long-term potentiation (LTP) and Long-term depression (LTD), and when the NMDAR is intensively activated, the LTP may be induced, and when the NMDAR is weakly activated a long-term weakening, LTD may be induced.
In the present experiment, the Long-term potentiation (LTP) and the Long-term depression experiments were conducted. First, the NMDAR properties of the nerve cell of the IRSp53 deficient mice were electrophysiologically measured. […]

IRSp53 deficient mouse = assay: Nerve cell firing of the medial prefrontal cortex in the anesthetized mouse; type: in vivo; details: IRSp53 deficient mice, urethane anesthesia, 10 mg/kg intraperitoneally, observed after 30 minutes
Description: (§2) The memantine was administered to the IRSp53 deficient mouse, and the synapse of the medial prefrontal cortex was structurally and functionally analyzed. In the experiment, the brain slices were not made, an anesthetic drug (1.5 g/kg) named Urethane was used on the mouse to perform the electrophysiological experiment in a condition in which the neural circuitry in the mouse is maintained, and the electrical signal firing of the nerve cell was observed, In detail, in the experiment, the mouse was anesthetized, a glass electrode for measuring the electrical signal was inserted in the medial prefrontal cortex and the hippocampus, and measured. A and I of FIG. 7 show the positions through which each electrode is inserted. From the result of comparing the nerve cell firing of the medial prefrontal cortex of the IRSp53 deficient mouse, in the IRSp53 deficient mouse, the nerve cell firing of the medial prefrontal cortex decreased. Specifically, in the IRSp53 deficient mouse, the nerve cell firing specific to the excitatory nerve cell decreased (B, C and D of FIG. 7).

[3] = test system: wild-type mouse and IRSp53 deficient mouse; assay: Nerve cell firing of the hippocampus in the anesthetized mouse; type: in vivo; details: IRSp53 deficient mouse compared to wild-type mice after memantine injection
Description: as §2

For Cc1cccc(C#Cc2ccccc2)n1 [MPEP, 2-Methyl-6-(phenylethynyl)pyridine], the “mice preference (sociability behavior) in the 3-chamber sociability test” value (IRSp53 deficient mice) was “improved to a level of the wild-type mice”, the “sedation due to side effects” value (IRSp53 deficient mice) was “no sedation due to side effects” and the NMDA/AMPA ratio (NMDAR [1]) was “restored to the level of the wild-type mouse”.
For CC12CC3CC(C)(C1)CC(N)(C3)C2 [memantine], the “mice preference (sociability behavior) in the 3-chamber sociability test” value (IRSp53 deficient mice) was “improved to a level of the wild-type mice”, the “sedation due to side effects” value (IRSp53 deficient mice) was “no sedation due to side effects” and the NMDAR-LTD (NMDAR [2]) was “restored”. For the same compound, the “nerve cell firing of the medial prefrontal cortex” value (IRSp53 deficient mouse) was “the drug showed good effects; also recorded: restored to the normal range” and the “nerve cell firing change in the hippocampus” value [3] was “the firing was greater”.

— patent US20180000802A1, “PHARMACEUTICAL COMPOSITION FOR PREVENTION AND TREATMENT OF MENTAL DISEASE WITH ENHANCED NMDAR FUNCTION” (INSTITUTE FOR BASIC SCIENCE, priority 2015, published 2018)
